# In US12258611B2, “Device for detecting tomato pathogenic fungus and detection method using the same” (Panasonic Intellectual Property Management Co., Ltd., priority 2018, dated 2025):
# How the values were obtained:
# Assay in all cases: hyphae penetrating the artificial cell wall, fludioxonil in culture solution
# Format in all cases: cell-based
# Botrytis cinerea = conditions: 25° C., 72 hours
# Protocol: Botrytis cinerea, which is one of tomato pathogens and is a pathogenic fungus that causes tomato gray mold, was inoculated onto a potato dextrose agar medium (Difco™ Potato Dextrose Agar). Subsequently, the medium was left static at a temperature of 25° C. for a week. The Botrytis cinerea was given by Associate Professor Shimizu, Faculty of Applied Biological Sciences, Gifu University. Subsequently, the potato dextrose agar medium having cultured Botrytis cinerea with sufficient hyphal growth was left under irradiation with black light for four days or longer, and subsequently left in a room-temperature environment for two weeks or longer, to promote sporulation. To the resultant potato dextrose agar medium having cultured Botrytis cinerea, several milliliters of sterile pure water was dropped, and the surface of the hyphae was rubbed with, for example, a platinum loop or a brush, to obtain a disintegrated hypha-spore mixed suspension.
# (§1) The above-described container having, at the bottom surface, the artificial cell wall including the polyethylene terephthalate film (substrate) having, on its back surface, the cellulose membrane was placed on a culture medium container (culture-solution storage), to provide a device for detecting a tomato pathogenic fungus. The culture medium container was a 24-well flat-bottom culture plate (Corning Incorporated, trade name: 24 Well Cell Culture Cluster Flat Bottom). […]
# (§2) Subsequently, sterile purified water was added such that the total volume with such a disintegrated hypha-spore mixed suspension became 200 μL. The tomato-pathogenic-fungus selection method device in which the seven species of fungi were added was left to stand at a temperature of 25° C. for 72 hours, and the number of hyphae penetrating the artificial cell wall and observed at the back surface was visually counted using an optical microscope. […]
# [1] = tested on: Pseudocercospora fuligena; conditions: 25° C., 72 hours
# Protocol: Pseudocercospora fuligena, which is one of tomato pathogens and is a pathogenic fungus that causes tomato Cercospora leaf mold, was inoculated onto a potato dextrose agar medium. Subsequently, the medium was left static at a temperature of 28° C. for a week. Pseudocercospora fuligena was distributed by The Genetic Resources Center, The National Agriculture and Food Research Organization (MAFF No. 306728). Subsequently, hyphae of Pseudocercospora fuligena were transferred from the potato dextrose agar medium to a burdock root powder agar medium, further left static for one to two weeks at a temperature of 28° C.; after hyphae sufficiently grew again, the surface of the hyphae was subjected to a mechanical stress such as rubbing with, for example, a platinum loop or a brush; subsequently, the medium was left under irradiation with black light for four days or longer, subsequently left in a room-temperature environment for two weeks or longer, to promote sporulation again. To the resultant burdock root powder agar medium having cultured Pseudocercospora fuligena, several milliliters of sterile pure water was dropped, and the surface of the hyphae was rubbed with, for example, a platinum loop or a brush, to obtain a disintegrated hypha-spore mixed suspension.
# as §1, with “fungus.” for “fungus. The culture medium container was a 24-well flat-bottom culture plate (Corning Incorporated, trade name: 24 Well Cell Culture Cluster Flat Bottom).”
# as §2
# Phoma multirostrata = conditions: Comparative Example 1, fludioxonil 133 mg/L, 25° C., 72 hours
# Text: (§3) Biscogniauxia maritima, Penicillium olsonii, Phoma multirostrata, and Trichoderma asperellum, which are not tomato pathogens but were present on tomato leaves, were sampled from the tomato leaves, isolated, and then inoculated onto a potato dextrose agar medium. The tomato plants serving as the isolation sources were sampled at a plurality of sites. The isolation method was as follows: into a clean resin container or resin bag, several tomato leaves sampled were placed together with a fungus collection solution composed of physiological saline containing 0.1% surfactant Tween 80 (SIGMA-ALDRICH), and stirred for 1 minute to transfer the fungi adhering to the leaves to the fungus collection solution; this fungus collection solution was diluted, and applied to a potato dextrose agar medium containing 100 mg/L of streptomycin sulfate (Wako) by the spread plate culture technique; subsequently, the medium was incubated at 25° C. for several days and, from the produced fungus colonies, the isolation was performed. We requested Tama Laboratory, (general incorporated association) Japan Food Research Laboratories to perform identification. The above-described Biscogniauxia maritima, Penicillium olsonii, Phoma multirostrata, and Trichoderma asperellum isolated and then inoculated onto the potato dextrose agar medium were left static at a temperature of 25° C. for a week. Subsequently, to the potato dextrose agar medium on which the four species of fungi were cultured with sufficient hyphal growth or sufficient sporulation, several milliliters of sterile pure water was dropped; the surface of the hyphae was rubbed with, for example, a platinum loop or a brush, to obtain a disintegrated hypha-spore mixed suspension.
# as §1, with “fungus.” for “fungus. The culture medium container was a 24-well flat-bottom culture plate (Corning Incorporated, trade name: 24 Well Cell Culture Cluster Flat Bottom).”
# Penicillium olsonii = conditions: Comparative Example 1, fludioxonil 133 mg/L, 25° C., 72 hours
# Text: as §3
# as §1, with “fungus.” for “fungus. The culture medium container was a 24-well flat-bottom culture plate (Corning Incorporated, trade name: 24 Well Cell Culture Cluster Flat Bottom).”
# Biscogniauxia maritima = conditions: Comparative Example 1, fludioxonil 133 mg/L, 25° C., 72 hours
# Text: as §3
# as §1, with “fungus.” for “fungus. The culture medium container was a 24-well flat-bottom culture plate (Corning Incorporated, trade name: 24 Well Cell Culture Cluster Flat Bottom).”
# Trichoderma asperellum = tested on: Trichoderma asperellum
# Text: as §3
# as §1, with “fungus.” for “fungus. The culture medium container was a 24-well flat-bottom culture plate (Corning Incorporated, trade name: 24 Well Cell Culture Cluster Flat Bottom).”
# Passalora fulva = conditions: 25° C., 72 hours
# Protocol: Passalora fulva, which is one of tomato pathogens and is a pathogenic fungus that causes tomato leaf mold, was inoculated onto a potato dextrose agar medium. Subsequently, the medium was left static at a temperature of 23° C. for one to two weeks. Passalora fulva was distributed by The Genetic Resources Center, The National Agriculture and Food Research Organization (MAFF No. 726744). Subsequently, to the potato dextrose agar medium having cultured Passalora fulva with sufficient hyphal growth, several milliliters of sterile pure water was dropped, and the surface of the hyphae was rubbed with, for example, a platinum loop or a brush, to obtain a disintegrated hypha-spore mixed suspension.
# as §1, with “Bottom). Between the culture medium container and the artificial-cell-wall-formed container, 600 μL of a liquid culture medium (culture solution) was charged so as to be in contact with the back surface of the artificial-cell-wall-formed container.” for “Bottom).”
# as §2
# [2] = Comparative Example 1, fludioxonil 133 mg/L
# [3] = Example 1, fludioxonil 0.5 mg/L
# [4] = Example 2, fludioxonil 1.3 mg/L
compound,measurement,setting,value
N#Cc1c[nH]cc1-c1cccc2c1OC(F)(F)O2 [fludioxonil],hyphae penetrating the artificial cell wall,Botrytis cinerea; [2],not observed
same,hyphae penetrating the artificial cell wall,Botrytis cinerea; [3],had hyphae penetrating the artificial cell wall
same,hyphae penetrating the artificial cell wall,Botrytis cinerea; [4],had hyphae penetrating the artificial cell wall
same,hyphae penetrating the artificial cell wall,[1]; [2],not observed
same,hyphae penetrating the artificial cell wall,[1]; [3],had hyphae penetrating the artificial cell wall
same,hyphae penetrating the artificial cell wall,[1]; [4],had hyphae penetrating the artificial cell wall
same,hyphae penetrating the artificial cell wall,Phoma multirostrata,not observed
same,hyphae penetrating the artificial cell wall,Penicillium olsonii,not observed
same,hyphae penetrating the artificial cell wall,Biscogniauxia maritima,not observed
same,hyphae penetrating the artificial cell wall,"Trichoderma asperellum; Comparative Example 1, fludioxonil 133 mg/L, 25° C., 72 hours",not observed
same,effect of excluding Trichoderma asperellum (number of hyphae penetrating the artificial cell walls),"Trichoderma asperellum; Comparative Example 2, fludioxonil 0.1 mg/L (1/1000 of the concentration that provides the agricultural chemical effect)",not observed
same,growth of Trichoderma asperellum (number of hyphae penetrating the artificial cell walls),"Trichoderma asperellum; Comparative Example 2, fludioxonil 0.5 mg/L (1/250 of the concentration that provides the agricultural chemical effect)",inhibited
same,hyphae penetrating the artificial cell wall,Passalora fulva; [2],not observed
same,hyphae penetrating the artificial cell wall,Passalora fulva; [3],had hyphae penetrating the artificial cell wall
same,hyphae penetrating the artificial cell wall,Passalora fulva; [4],had hyphae penetrating the artificial cell wall
